Like-named read-outs stand apart in the source and are kept apart here.

What is called IC50 is the point on the concentration scale where inhibition reaches its midpoint. Usually Ki stands for a measure of affinity in units of concentration, obtained from inhibition or displacement.

Data set [1] in a line: in vitro. To be noted: human. The method, then: (§1) Toxicity in human fetal lung fibroblast (MRC-5) cell line and primary mouse macrophages (PMM) was assessed using a previously reported assay in 96-well microtiter plates. Tamoxifen and miltefosine were included as reference drugs (Table 10).
(§2) For MRC5SV2 or PMM cells, the assays were performed in 96-well microtiter plates, each well containing 10 µL of compound dilution and 190 µL of cell inoculum (3 × 10^4 cells/mL) as reported. Cell growth was compared to untreated controls (100% growth) and assay-media controls (0% growth). After three-day incubation, cell viability was assessed fluorometrically by adding resazurin [50 µL/well of a stock solution in phosphate buffer (50 µg/mL)], incubating for 4 h and measuring fluorescence (ex 550 nm, em 590 nm). The results are expressed as percentage reduction in cell growth as compared to untreated control wells. […] Tamoxifen was included as the reference drug.

Data set [2] concerns T. b. brucei Squib-427 strain. Put plainly: Anti-trypanosomal activity, T. b. brucei trypomastigotes (resazurin). It is filed as cell-based, Trypanosoma brucei brucei. To be noted: Trypanosoma brucei, 72 h. How it is done: (§3) Anti-trypanosomal activity: T. b. brucei Squib-427 strain (suramin-sensitive) and T. b. gambiense (ITMAP/1893) were cultured at 37 °C and 5% CO2 in HMI-9 medium supplemented with 10% FCS [90]. About 10^4 trypomastigotes/well were added to each well and parasite growth was assessed after 72 h at 37 °C by adding resazurin and reading at ex 550 nm, em 590 nm. Suramin was included as reference drug for T. b. brucei and pentamidine for T. b. gambiense.

Data set [3] relates to Human TrxR. To be noted: 3 mM DTNB, read-out: IC50 Human TrxR, substrate DTNB, cited from earlier work.
Data set [4] addresses T1, S. mansoni TGR (Schistosoma mansoni, UniProt Q962Y6).
T1 construct: made in house; host or cells: E. coli
T1 sequence (Q962Y6 1-598): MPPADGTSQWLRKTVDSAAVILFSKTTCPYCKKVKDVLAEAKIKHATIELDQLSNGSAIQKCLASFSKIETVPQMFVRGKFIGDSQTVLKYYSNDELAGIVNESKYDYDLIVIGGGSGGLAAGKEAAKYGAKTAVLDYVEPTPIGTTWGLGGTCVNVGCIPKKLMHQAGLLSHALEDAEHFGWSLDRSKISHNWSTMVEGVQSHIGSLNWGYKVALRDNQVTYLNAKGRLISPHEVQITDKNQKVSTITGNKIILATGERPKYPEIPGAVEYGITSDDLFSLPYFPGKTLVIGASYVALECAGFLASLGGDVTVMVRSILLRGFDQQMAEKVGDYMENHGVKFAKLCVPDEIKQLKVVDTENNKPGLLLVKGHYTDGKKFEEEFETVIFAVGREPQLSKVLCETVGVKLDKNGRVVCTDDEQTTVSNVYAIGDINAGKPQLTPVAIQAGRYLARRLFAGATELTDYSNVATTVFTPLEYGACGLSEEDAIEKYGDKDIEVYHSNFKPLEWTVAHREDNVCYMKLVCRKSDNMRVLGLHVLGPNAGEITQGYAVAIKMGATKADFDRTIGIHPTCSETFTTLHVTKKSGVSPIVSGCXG
On the set-up: method as in PMID 17579510. To be noted: 20 nM enzyme, 3 mM DTNB; after 15 min preincubation; read-out: IC50 S. mansoni TGR, substrate DTNB; cited from earlier work.

In data set [5] the target is human thioredoxin reductase (TrxR). Set-up: method as in PMID 9685351. The settings on record: cited from earlier work.
For the next data set, the system named is Human GR. To be noted: read-out: IC50 Human GR, substrate GSSG, cited from earlier work.
Data set [6] has as its target T1, S. mansoni TGR. Set-up: method as in PMID 17579510. To be noted: 20 nM enzyme, 8 mM substrate; after 15 min preincubation; read-out: IC50 S. mansoni TGR, substrate HED + GSSG; cited from earlier work.
In data set [7] the target is T1, S. mansoni TGR. Set-up: method as in PMID 17579510. The settings on record: 20 nM enzyme, 100 µM GSSG; after 15 min preincubation; read-out: IC50 S. mansoni TGR, substrate GSSG; cited from earlier work.
Data set [8] has as its system T. b. gambiense (ITMAP/1893). The experiment in a line: Anti-trypanosomal activity, T. b. gambiense trypomastigotes (resazurin). It is filed as cell-based, Trypanosoma brucei gambiense. To be noted: Trypanosoma brucei, GAMBIENSE, 72 h, read-out: T. b. gambiense IC50 (µM) ± SD. How it is done:
as §3
(The colour change of resazurin is a common sign of viable cells or microbes.)

In data set [9] the test system is Acanthamoeba castellanii ATCC 30010. The experiment in a line: Anti-acanthamoebal activity on A. castellanii trophozoites (resazurin). The class given is cell-based. The settings on record: ATCC30010, 72 h, read-out: Acanthamoeba castellanii ATCC 30010 IC50 (µM) ± SD. How it is done:
(§4) In vitro anti-leishmanial evaluation was perfomed on both axenic and intramacrophage L. donovani amastigotes as previously described. […] Briefly, compounds were distributed in 96-well plates using 2-fold dilutions in 100 µL PYG medium. A. castellanii trophozoites were added to each well at 5 × 10^4 amoeba/mL in 200 µL final volume. L. donovani axenic amastigotes were added to each well at 10^6 parasites/mL in 200 µL final volume. After 72 h incubation at 27 °C, 20 µL of 1 mM resazurin was added to each well and further incubated at 27 °C for 8 h for A. castellanii and for 24 h for L. donovani axenic amastigotes. In living cells, resazurin is reduced in resorufin. This conversion is monitored by measuring the absorbance at specific wavelengths of resorufin (570 nm) and resazurin (600 nm) using a microplate reader (Labsystems Multiskan MS, McLean, VA, USA). In this assay, the activity was expressed in IC50. Miltefosine and pentamidine were used as reference drugs. All experiments were performed in three independent experiments.

Data set [10] in a line: Cytotoxicity on RAW 264.7 macrophages. The settings on record: mouse, RAW 264.7 macrophages; 48 h incubation; read-out: Cytotoxicity on RAW 264.7 Macrophages CC50 (µM) ± SD. It is filed as cell-based, murine. The method, then:
Cytotoxicity was evaluated on RAW 264.7 macrophages that were maintained at 37 °C with 5% CO2 in Dulbecco’s Modified Eagle’s Medium (DMEM, Invitrogen, Toulouse, France) supplemented with 100 U/mL penicillin-streptomycin (Invitrogen) and 10% heat-inactivated fetal bovine serum, as previously described. Briefly, cells were plated in 96-well microplates at a density of 2 × 10^4 cells per well. After incubation for 24 h at 37 °C in 5% CO2, the medium was removed from each well and 100 µL of medium containing 2-fold serial dilutions of compounds was added to each well. After 48 h incubation at 37 °C in 5% CO2, 10 µL of 450 µM resazurin was added to each well and further incubated in the dark for 4 h. Cell viability was determined as described above. The cytotoxicity of the compounds was expressed as CC50.

For data set [11], the system named is L. infantum MHOM/MA (BE)/67 amastigotes. Put plainly: Anti-leishmanial activity, L. infantum amastigotes in primary peritoneal mouse macrophages. It is filed as cell-based, Leishmania infantum. To be noted: Leishmania infantum, Macrophage, 120 h; amastigotes in primary peritoneal mouse macrophages, 5 days; read-out: Leishmania infantum IC50 (µM) ± SD. The method, then:
Anti-leishmanial activity: L. infantum MHOM/MA (BE)/67 amastigotes were collected from the spleen of an infected donor hamster and used to infect primary peritoneal mouse macrophages grown in a 96-well plate. After 2 days outgrowth, 5 × 10^5 amastigotes were added to each well and incubated for 2 h at 37 °C. The compounds were subsequently added and the plates were further incubated for 5 days at 37 °C and 5% CO2. Parasite burdens (mean number of amastigotes/macrophage) were microscopically assessed on 500 cells after Giemsa staining and expressed as a percentage of the blank controls. Miltefosine was included as reference drug. The use of laboratory rodents was carried out in accordance to all mandatory guidelines (EU directives, including the Revised Directive 2010/63/EU on the Protection of Animals used for Scientific Purposes that came into force on 1 January 2013, and the declaration of Helsinki in its latest version) and was approved by the Ethical Committee of the University of Antwerp, Belgium [UA-ECD 2011–77 (17-02-2012 and UA-ECD 2015-90].

Data set [12] in a line: in vitro. The settings on record: mouse. How it is done:
as §1, §2

In data set [13] the test system is Leishmania donovani LV9 axenic amastigotes. The experiment in a line: L. donovani LV9 axenic amastigotes (resazurin). To be noted: Leishmania donovani; read-out: Leishmania donovani LV9 Axenic Amastigotes IC50 (µM) ± SD. It is filed as cell-based. How it is done:
as §4

Data set [14] concerns Leishmania donovani LV9 intramacrophage amastigotes. Put plainly: L. donovani LV9 intramacrophage amastigotes. The class given is cell-based. To be noted: Leishmania donovani; read-out: Leishmania Donovani LV9 Intramacrophage Amastigotes IC50 (µm) ± SD. The method, then: as §4
For data set [15], the system named is Human TrxR. To be noted: 20 µM substrate, after 10 min enzyme-NADPH-gold complex preincubation, read-out: IC50 Human TrxR, substrate hTrxC72S, cited from earlier work.
Another data set deals with T. cruzi Tulahuen CL2. Put plainly: Anti-Chagas activity, T. cruzi on MRC-5 cells. It is filed as cell-based. The settings on record: Trypanosoma cruzi, TULAHUEN, MRC5, 168 h; amastigotes, MRC-5 host cells, 7 days; read-out: Trypanosoma cruzi IC50 (µM) ± SD. The method, then: Anti-Chagas activity: T. cruzi Tulahuen CL2 (benznidazole-sensitive, LacZ-reporter strain) was maintained on MRC-5 cells in minimal essential medium (MEM) supplemented with […], 16.5 mM sodium hydrogen carbonate and 5% FCS. In the assay, 4 × 10^3 MRC-5 cells and 4 × 10^4 parasites were added to each well. After incubation at 37 °C for 7 days, parasite growth was assessed by adding the substrate chlorophenol red -D-galactopyranoside. The color reaction was read at 540 nm after 4 h and absorbance values were expressed as a percentage of the blank controls. Benznidazole was included as reference drug.

As to `CC/C(=C(\c1ccccc1)c1ccc(OCCN(C)C)cc1)c1ccccc1` [Tamoxifen], the CC50 at 3 days in “in vitro [1]” came to 10.6 µM.

As for `Cc1ccc(C(=O)Nc2ccc(S(=O)(=O)O)c3cc(S(=O)(=O)O)cc(S(=O)(=O)O)c23)cc1NC(=O)c1cccc(NC(=O)Nc2cccc(C(=O)Nc3cc(C(=O)Nc4ccc(S(=O)(=O)O)c5cc(S(=O)(=O)O)cc(S(=O)(=O)O)c45)ccc3C)c2)c1` [Suramin], the IC50 in data set [2] is 0.03 µM.

On to `OC[C@H]1O[C@H]([S-])[C@H](O)[C@@H](O)[C@@H]1O.[Au+]` [Aurothioglucose], for which the concentration for half-maximal inhibition (IC50) in the data set on Human TrxR [3] (2 nM enzyme, steady state kinetic studies) was 65 nM; on S. mansoni TGR [4] it was 70 nM; with Human GR (1.5 nM enzyme, 1 mM GSSG, steady state kinetic studies), greater than 100000 nM; on S. mansoni TGR [6] it was 400 nM; on S. mansoni TGR [7], 3000 nM. Also, the inhibition constant Ki in data set [5] was 4 nM.

As to `N=C(N)c1ccc(OCCCCCOc2ccc(C(=N)N)cc2)cc1` [Pentamidine], the figures for the IC50 in data set [8] and in data set [9] were 0.0011 ± 0.0001 µM and 1.39 ± 0.37 µM, respectively. Further, the CC50 at 48 h in data set [10] is greater than 25 µM.

For the molecule `CCCCCCCCCCCCCCCCOP(=O)([O-])OCC[N+](C)(C)C` [Miltefosine], the half-maximal inhibitory concentration (IC50) in data set [11] is 11.3 ± 2.88 µM; in [9], 9.21 ± 2.04 µM; in [2], 11.3 µM; in data set [13], 1.28 ± 0.12 µM; in [14], 4.49 ± 1.08 µM. Also, the CC50 at 3 days in “in vitro [12]” was found to be 20 µM. The CC50 at 48 h in data set [10] is greater than 25 µM.

Regarding `[Cl][Au][PH]1(c2ccccc2)C(c2ccccn2)=CC=C1c1ccccn1` [GoPI, {1-phenyl-2,5-di(2-pyridyl)phosphole}AuCl], the IC50 is 1 nM in the data set with Human TrxR [3] (3.7 nM enzyme, after 10 min preincubation); 0.8 nM in the data set with Human TrxR [3] ([…] enzyme, after 10 min preincubation); 2 nM in the data set with Human GR (1.4-[…] enzyme, 100 µM GSSG, after 10 min preincubation); 1 nM in the data set on Human GR ([…] enzyme, 100 µM GSSG, after 10 min preincubation); 6.9 nM with Human TrxR [15] (24 nM enzyme); 7 nM in the data set on Human TrxR [15] (30 nM enzyme).

Turning to `O=C(Cn1ccnc1[N+](=O)[O-])NCc1ccccc1` [Benznidazole, reference compound], the IC50 with T. cruzi Tulahuen CL2 was 2.89 ± 0.94 µM.

The record behind these values is PMC7663263 (Molecules, 2020).
